Consider 12 compounds from patent US11135207B2, “Inhibitors of dihydroceramide desaturase for treating disease” (Centaurus Therapeutics, priority 2016, dated 2021).

Like-named read-outs stand apart in the source and are kept apart here.

Assay [1] concerns the target Des1 (Homo sapiens (Human), UniProt O15121). Briefly: Jurkat T cell measurement of conversion of dihydroceramide to ceramide. The assay is classed as cell-based. To be noted: Jurkat clone E6-1 cells; for inhibition at 0.5 µM: 0.5 μM compound, read-out: Des1 % Inhib (0.5 μM). Here is the method: Jurkat T Cell Measurement of Conversion of Dihydroceramide to Ceramide
Jurkat clone E6-1 cells were grown and then seeded at 10^6 cells/mL in a 96-well plate (400 μL in each well. The cells were administered 100 μL of cell culture media containing 50-μM NBD-C6-dihydroceramide (Des1 substrate), affording a final concentration of substrate of 10 μM. The cells were incubated with substrate at 4° C. for 30 minutes. Following the incubation at 4° C., the cell suspension was centrifuged at 1200 rpm for 3 minutes, and the cell pellet is resuspended in 400 μL of fresh media containing various concentrations of either fenretinide (known Des1 inhibitor control compound) or test article. The final concentrations of control compound and test compounds were tested in a range from 0-10 μM. The cells and compounds were incubated at 37° C. for 3 hours. Following the 3-hour incubation, the plate was centrifuged at 2500 g for 3 minutes at 4° C., followed by collection and transfer of 200 μL of the supernatant to a new 96-well plate with 300 μL of methanol an containing appropriate internal standards for liquid chromatography/tandem mass spectroscopy (LC/MS/MS) analysis (internal standard: 500 nM labetalol and 100 nM alprazolam). The samples were vortexed for 2 minutes followed by centrifugation at 3,220 g for 20 minutes. Following centrifugation, 200 μL of the supernatant was transferred to a new 96-well plate for LC-MS/MS analysis to determine the amount of NBD-C6-ceramide (Des1 product) produced. The assay was typically performed in duplicate. A reduction of at least 30% compared to vehicle control (0 μM test article) is indicative of an active compound, and a reduction of 75% compared to vehicle control is preferred.

In assay [2] the test system is insulin-stimulated Akt phosphorylation in C2C12 myotubes. Briefly: C2C12 myotube assay of insulin-stimulated phosphorylation of Akt. It is filed as cell-based. The following applies: Mus musculus, in the presence of palmitate, read-out: half-maximal effective concentration (EC50) for increasing insulin-stimulated Akt phosphorylation. Here is the method:
C2C12 Myotube Assay of Insulin-Stimulated Phosphorylation of Akt:
C2C12 myotubes are treated with 0.75 mM BSA-conjugated palmitate for 16 hours in the presence or absence of 7 non-zero concentrations of fenretinide (Des1 inhibitor control compound) or various test articles, followed by a 10-minute stimulation with insulin (100 nM). Cells are subsequently harvested and boiled in reducing SDS sample buffer and subjected to SDS-PAGE followed by detection of phosphorylated Akt, total Akt, and a suitable loading control (e.g. actin or GAPDH) by western blot using fluorescently-conjugated secondary antibodies. Band intensities are quantitated by an Odyssey imaging system (Li-COR), but could also be performed using HRP-conjugated secondary antibodies/enhanced chemiluminescence or by colorimetric readout.
Moreover, while currently contemplated for SDS-PAGE/immunoblot format, this assay could be adapted to ELISA or in-cell western (immunocytochemistry) formats for higher throughput testing of compounds. An increase of 30% compared to vehicle control (0 μM test article) is indicative of an active compound, and an increase of 50% compared to control is preferred. […] Des1 inhibitors disclosed herein are expected to be effective in this assay.

Assay [3] relates to CFTR-KO mice. The following applies: cited from earlier work.
Where [4] appears, read: NBD-C6-dihydroceramide substrate, read-out: Des1 IC50.

Des1, sequence (O15121 whole entry): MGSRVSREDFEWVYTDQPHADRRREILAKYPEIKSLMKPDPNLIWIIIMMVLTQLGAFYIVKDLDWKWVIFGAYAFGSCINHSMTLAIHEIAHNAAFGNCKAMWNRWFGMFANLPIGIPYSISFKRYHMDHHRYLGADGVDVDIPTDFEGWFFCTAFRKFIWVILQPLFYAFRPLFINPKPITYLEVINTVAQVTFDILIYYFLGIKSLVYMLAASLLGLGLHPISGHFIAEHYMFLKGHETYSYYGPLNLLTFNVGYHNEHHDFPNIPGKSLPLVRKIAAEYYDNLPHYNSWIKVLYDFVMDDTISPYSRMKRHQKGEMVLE

For the compound `O=C(Nc1ccc(O)cn1)c1ccc(C(F)(F)F)cc1` [Example 44, N-(5-hydroxy-pyridin-2-yl)-4-(trifluoro-methyl)-benzamide], in assay [1], the inhibition at 0.5 µM was determined as 88%. Besides, the IC50 in assay [1] (setting [4]) is 63 nM. In the same order, the values of `CC(c1ccc(C(=O)Nc2ccc(O)cn2)cc1)C(F)(F)F` (centres unmarked) [Example 45, N-(5-hydroxy-pyridin-2-yl)-4-(1,1,1-trifluoro-propan-2-yl)-benzamide] are 94% and 23 nM. For `O=C(CC1CCN(c2ccc(C(F)(F)F)cc2)CC1)Nc1ccc(O)cn1` [Example 46, N-(5-hydroxypyridin-2-yl)-2-[1-[4-(trifluoromethyl)phenyl]piperidin-4-yl]acetamide], the inhibition at 0.5 µM in assay [1] worked out at 96.2%. With `O=C(CN1CCN(c2ccc(C(F)(F)F)cc2)CC1)Nc1ccc(O)cn1` [Example 47, N-(5-hydroxypyridin-2-yl)-2-[4-[4-(trifluoromethyl)phenyl]piperazin-1-yl]acetamide], the IC50 in assay [1] (setting [4]) was 50 nM. Consider `O=C(Nc1ccc(O)cn1)C1CCCN(c2ccc(F)cc2)C1` (centres unmarked) [Example 48, 1-(4-fluorophenyl)-N-(5-hydroxypyridin-2-yl)piperidine-3-carboxamide], for which the inhibition at 0.5 µM in assay [1] turned out to be 91.3%. Further, in assay [1] (setting [4]), the IC50 is 250 nM. Taken in the same sequence, the figures for `O=C(CC1CCN(c2ccc(F)cc2)CC1)Nc1ccc(O)cn1` [Example 49, 2-[1-(4-fluorophenyl)piperidin-4-yl]-N-(5-hydroxypyridin-2-yl)acetamide] were 96.8% and 13 nM. Taken in the same sequence, the figures for `O=C(CN1CCN(c2ccc(F)cc2)CC1)Nc1ccc(O)cn1` [Example 50, 2-[4-(4-fluorophenyl)piperazin-1-yl]-N-(5-hydroxypyridin-2-yl)acetamide] were 92.3% and 140 nM. Take `O=C(CC1CCN(c2ccc(Cl)cc2)CC1)Nc1ccc(O)cn1` [Example 51, 2-[1-(4-chlorophenyl)piperidin-4-yl]-N-(5-hydroxypyridin-2-yl)acetamide]: the inhibition at 0.5 µM in assay [1] amounted to 97.3%. Also, in assay [1] (setting [4]), the IC50 was found to be 5 nM. In the same order, the values of `O=C(CN1CCN(c2ccc(Cl)cc2)CC1)Nc1ccc(O)cn1` [Example 52, 2-[4-(4-chlorophenyl)piperazin-1-yl]-N-(5-hydroxypyridin-2-yl)acetamide] are 94.1% and 66 nM. For `O=C(Nc1ccc(O)cn1)C1CCN(c2ccc(C(F)(F)F)cc2)CC1` [Example 53, N-(5-hydroxypyridin-2-yl)-1-[4-(trifluoromethyl)phenyl]piperidine-4-carboxamide], the IC50 in assay [1] (setting [4]) stood at 2 nM.

As for `O=C(Nc1ccc(O)cn1)C1CCN(c2ccc(F)cc2)CC1` [Example 54, 1-(4-fluorophenyl)-N-(5-hydroxypyridin-2-yl)piperidine-4-carboxamide], the inhibition at 0.5 µM in assay [1] is 96.6%. Also, in assay [1] (setting [4]), the IC50 turned out to be 11 nM. On to `CC1=C(/C=C/C(C)=C/C=C/C(C)=C/C(=O)Nc2ccc(O)cc2)C(C)(C)CCC1` [fenretinide], for which the IC50 in assay [1] (read-out: half-maximal inhibitory concentration (IC50)) lay within 100 to 250 nM. Further, the EC50 in assay [2] came out at 600 nM. Moreover, the “susceptibility to infection with Pseudomonas aeruginosa” value in assay [3] (CFTR-KO mice) is on record as “reduce susceptibility to infection with Pseudomonas aeruginosa”. In assay [3] (lungs of CFTR-KO mice), the “lung AA/DHA ratio” value is “normalize this ratio”.
